Measured values from article PMC10846744, “Cathelicidin peptide analogues inhibit EV71 infection through blocking viral entry and uncoating” (PLOS Pathogens, 2024).
Where no end group is shown, it is not given here.

Key:
RD cells = experiment: Cytotoxicity of peptides on RD cells (Cell Titer-Glo); format: cell-based, human; details: cell viability plotted against peptide concentration, Cell Titer-Glo (S1A-S1D Fig)
Experimental: To test whether Cathelicidin peptide (LL-37) and its analogues could inhibit enterovirus infection, we conducted viral infection inhibition test on RD cells, which are one of the most commonly used cells for enterovirus propagation. We first assessed the cytotoxicity of LL-37, LL-18, FF-18, and a short form of LL-37 (DL-37) (Fig 1A), and all the peptides tested have a CC50 over 50 μM (S1A–S1D Fig). We then chose lower concentrations to test their antiviral activity. […] In addition, EV71 infection could cause cytopathic effect (CPE) on RD cells, and peptide could rescue EV71-induced cell death as assayed by crystal violet staining (Fig 1E) or cellular ATP content measurement (Fig 1F).
(§1) Cell viability assays were carried out using the Cell Titer-Glo Luminescent Cell Viability Assay Kit (Promega, Madison, WI) following the manufacturer’s instructions. Luminescence signals were measured using a BioTek Neo2 microplate reader.
(§2) (A-D) Cell viability of RD cells treated with the indicated amount of DL-37 (A), LL-37 (B), LL-18 (C), or FF-18 (D) was plotted against peptide concentration, and the cytotoxicity was determined. (E) EV71 virus pre-incubated with indicated amounts of DL-37, and the cell viability was determined 24 h.p.i. ***, P<0.001. (F-G) CVB5 (F) or Echo7 (G) virus pre-incubated with 0.3, 0.9, or 1.5 μM of peptides were used to infect RD cells. Cell viability was determined 24 h.p.i. ***, P<0.001. (H-I) CVB5 (H) or Echo7 (I) virus pre-incubated with 3, 6, or 12 μM of peptides were used to infect RD cells. Cell viability was determined 24 h.p.i. ***, P<0.001. (TIF) Click here for additional data file.

EV71 virus [1] = experiment: Virus internalization assay (q-RT-PCR, immunoblotting); format: cell-based, enterovirus 71 (EV71); details: 1.5 μM peptide (q-RT-PCR, MOI = 1) or 3 μM (immunoblotting, MOI = 10); RD cells 4°C 1 hr then 37°C 1 hr
Experimental: (§3) Fig 3 LL-18 and FF-18 inhibit viral attachment and internalization. (A) EV71 virus (MOI = 1) was pre-incubated with 1.5 μM LL-18, FF-18 or 12 μM 12s before they were used to incubate with RD cells at 4°C for 1 hr. Viral RNA was then determined with q-RT-PCR. Values are normalized to vehicle treated cells. ***, P<0.001. (B) EV71 virus (MOI = 1) was pre-incubated with 1.5 μM LL-18, FF-18 or 12 μM 12s before they were used to incubate with RD cells at 4°C for 1 hr followed by 37°C incubation for 1 hr. Viral RNA was then determined with q-RT-PCR. Values are normalized to vehicle treated cells. ***, P<0.001. (C) Diagram of EV71 subgenomic replicon. […] (D) RD cells transfected with EV71 SGR RNA were treated with 1.5 μM LL-18 or FF-18 for 3 hrs (left panel) or 6 hrs (right panel) before luciferase activity was measured. ns, not significant.
(§4) Viral binding and internalization assays were performed as previously described. […] Cells were then washed extensively with ice-cold PBS, and the viruses retained were analyzed with real-time PCR. […]
(§5) Supplementary file ppat.1011967.s002.tif: S2 Fig LL-18 and FF-18 inhibit viral attachment and internalization. […] Cells were then washed extensively and kept cultured for 24 hrs before viral VP1 expression was determined with immunoblotting. […] Cells were then washed extensively and kept cultured for 24 hrs before viral VP1 expression was determined with immunoblotting. […]

EV71 virus [2] = experiment: Virus attachment assay (q-RT-PCR, immunoblotting); format: cell-based, enterovirus 71 (EV71); details: 1.5 μM peptide (q-RT-PCR, MOI = 1) or 3 μM (immunoblotting, MOI = 10); RD cells 4°C 1 hr
Experimental: as §3, §4, §5

coxsackievirus B5 (CVB5) = experiment: CVB5 infection inhibition on RD cells (cell viability); format: cell-based; details: for inhibition of CVB5 infection: 0.3, 0.9, or 1.5 μM peptide pre-incubated with virus, RD cell viability 24 h.p.i (S1F Fig); for inhibition of CVB5 infection, higher concentrations: 3, 6, or 12 μM peptide pre-incubated with virus, RD cell viability 24 h.p.i (S1H Fig)
Experimental: Synthetic peptides were purchased from Bioyears Co. Ltd. (Wuhan, China) with purity of more than 95% and dissolved in PBS. To test their inhibitory effects, the EV71 virus (MOI = 1) was incubated with the indicated amount of peptide at room temperature for 1 hr before the mixture was added to RD cells and maintained throughout the experiment. Cell viability, viral titer, or viral protein expression was determined 24 h.p.i. For the time-of-addition experiment, viruses were either pre-incubated with peptides (for the -2 and -1 time points), the mixture was added to the cells simultaneously (for 0 time point), or peptides were added after virus infection (for 1, 2, 4 and 7 h time points) and the virus/peptide was maintained in the culture before cell viability, viral titer, or viral protein expression was determined 24 h.p.i. The TCID50 of the virus was calculated according to the Reed-Muench method.
as §1, §2

FRKSKEKIGKLFKRIVQRILDFLRNLV [LL-18]
CC50 (RD cells): over 50 μM
inhibition of EV71 internalization (EV71 virus [1]): strong inhibition
inhibition of EV71 attachment (EV71 virus [2]): could effectively inhibit EV71 attachment
inhibition of CVB5 infection (coxsackievirus B5 (CVB5)): neither LL-18 nor FF-18 could inhibit CVB5 or Echo 7 infection
inhibition of CVB5 infection, higher concentrations (coxsackievirus B5 (CVB5)): could still not inhibit CVB5 or Echo 7 infection

FRKSKEKIGKFFKRIVQRIFDFLRNLV [FF-18]
CC50 (RD cells): over 50 μM
inhibition of EV71 internalization (EV71 virus [1]): strong inhibition
inhibition of EV71 attachment (EV71 virus [2]): could effectively inhibit EV71 attachment
inhibition of CVB5 infection (coxsackievirus B5 (CVB5)): neither LL-18 nor FF-18 could inhibit CVB5 or Echo 7 infection
inhibition of CVB5 infection, higher concentrations (coxsackievirus B5 (CVB5)): could still not inhibit CVB5 or Echo 7 infection
